Laboratory results reported in ChEMBL document CHEMBL1201862, “PubChem BioAssay data set” (2004).
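The compound was tested at five concentrations on cells cultured in 96-well plates, with a 48-hour exposure period. GI50 marks 50% less growth.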 Active and inactive are the calls of the source. Rule as the data show it: active = GI50 up to about 1.1 µM and inactive = higher.

Tests used:
Assay in all cases: NCI anticancer screen, dose series, 48 h
SF-539 = test system: SF-539
NCI/ADR-RES = test system: NCI/ADR-RES
HOP-62 = test system: HOP-62
CCRF-CEM = test system: CCRF-CEM
HCT-116 = test system: HCT-116
HCC 2998 = test system: HCC 2998
SW-620 = test system: SW-620
PC-3 = test system: PC-3
UACC-257 = test system: UACC-257
LOX IMVI = test system: LOX IMVI
SNB-75 = test system: SNB-75
MDA-MB-435 = test system: MDA-MB-435
SK-MEL-2 = test system: SK-MEL-2
RPMI-8226 = test system: RPMI-8226
TK-10 = test system: TK-10
MDA-N = test system: MDA-N
A549 = test system: A549
IGROV-1 = test system: IGROV-1
NCI-H460 = test system: NCI-H460
EKVX = test system: EKVX
T47D = test system: T47D
Hs-578T = test system: Hs-578T
CAKI-1 = test system: CAKI-1
UO-31 = test system: UO-31
MCF7 = test system: MCF7
A498 = test system: A498
RXF 393 = test system: RXF 393
SN12C = test system: SN12C
DU-145 = test system: DU-145
ACHN = test system: ACHN
HL-60 = test system: HL-60
NCI-H522 = test system: NCI-H522
OVCAR-5 = test system: OVCAR-5
UACC-62 = test system: UACC-62
M14 = test system: M14
COLO 205 = test system: COLO 205
Malme-3M = test system: Malme-3M
HCT-15 = test system: HCT-15
SK-OV-3 = test system: SK-OV-3
NCI-H23 = test system: NCI-H23
SF-268 = test system: SF-268
KM12 = test system: KM12
U-251 = test system: U-251
MOLT-4 = test system: MOLT-4
SF-295 = test system: SF-295
SNB-19 = test system: SNB-19
786-0 = test system: 786-0
OVCAR-3 = test system: OVCAR-3
NCI-H226 = test system: NCI-H226
SK-MEL-5 = test system: SK-MEL-5
SR = test system: SR
HOP-92 = test system: HOP-92
BT-549 = test system: BT-549
HT-29 = test system: HT-29
SK-MEL-28 = test system: SK-MEL-28
K562 = test system: K562
OVCAR-8 = test system: OVCAR-8
MDA-MB-231 = test system: MDA-MB-231
OVCAR-4 = test system: OVCAR-4

## CC1CN=C(Nc2ccccc2)S1 (stereo not drawn)
SF-539
  GI50: > 100 µM (inactive)
NCI/ADR-RES
  GI50: > 100 µM (inactive)
HOP-62
  GI50: > 100 µM (inactive)
CCRF-CEM
  GI50: > 100 µM (inactive)
HCT-116
  GI50: > 100 µM (inactive)
HCC 2998
  GI50: > 100 µM (inactive)
SW-620
  GI50: > 100 µM (inactive)
PC-3
  GI50: > 100 µM (inactive)
UACC-257
  GI50: > 100 µM (inactive)
LOX IMVI
  GI50: > 100 µM (inactive)
SNB-75
  GI50: > 100 µM (inactive)
MDA-MB-435
  GI50: > 100 µM (inactive)
SK-MEL-2
  GI50: > 100 µM (inactive)
RPMI-8226
  GI50: > 100 µM (inactive)
TK-10
  GI50: > 100 µM (inactive)
MDA-N
  GI50: > 100 µM (inactive)
A549
  GI50: > 100 µM (inactive)
IGROV-1
  GI50: > 100 µM (inactive)
NCI-H460
  GI50: > 100 µM (inactive)
EKVX
  GI50: > 100 µM (inactive)
T47D
  GI50: > 100 µM (inactive)
Hs-578T
  GI50: > 100 µM (inactive)
CAKI-1
  GI50: > 100 µM (inactive)
UO-31
  GI50: 56.8 µM (inactive)
MCF7
  GI50: > 100 µM (inactive)
A498
  GI50: > 100 µM (inactive)
RXF 393
  GI50: > 100 µM (inactive)
SN12C
  GI50: > 100 µM (inactive)
DU-145
  GI50: > 100 µM (inactive)
ACHN
  GI50: > 100 µM (inactive)
HL-60
  GI50: > 100 µM (inactive)
NCI-H522
  GI50: > 100 µM (inactive)
OVCAR-5
  GI50: > 100 µM (inactive)
UACC-62
  GI50: > 100 µM (inactive)
M14
  GI50: > 100 µM (inactive)
COLO 205
  GI50: > 100 µM (inactive)
Malme-3M
  GI50: > 100 µM (inactive)
HCT-15
  GI50: > 100 µM
SK-OV-3
  GI50: > 100 µM (inactive)
NCI-H23
  GI50: > 100 µM (inactive)
SF-268
  GI50: > 100 µM (inactive)
KM12
  GI50: > 100 µM (inactive)
U-251
  GI50: > 100 µM (inactive)
MOLT-4
  GI50: > 100 µM (inactive)
SF-295
  GI50: > 100 µM (inactive)
SNB-19
  GI50: > 100 µM (inactive)
786-0
  GI50: > 100 µM (inactive)
OVCAR-3
  GI50: > 100 µM (inactive)
NCI-H226
  GI50: > 100 µM (inactive)
SK-MEL-5
  GI50: > 100 µM (inactive)
SR
  GI50: > 100 µM (inactive)
HOP-92
  GI50: > 100 µM (inactive)
BT-549
  GI50: > 100 µM (inactive)
HT-29
  GI50: > 100 µM (inactive)
SK-MEL-28
  GI50: > 100 µM (inactive)
K562
  GI50: > 100 µM (inactive)
OVCAR-8
  GI50: > 100 µM (inactive)
MDA-MB-231
  GI50: > 100 µM (inactive)

## Cc1cc(C)n(C2OC(CO)C(O)C(O)C2O)c(=S)c1C#N (stereo not drawn)
SF-539
  GI50: > 100 µM (inactive)
NCI/ADR-RES
  GI50: > 100 µM (inactive)
HOP-62
  GI50: > 100 µM (inactive)
CCRF-CEM
  GI50: > 100 µM (inactive)
HCT-116
  GI50: > 100 µM (inactive)
HCC 2998
  GI50: > 100 µM (inactive)
SW-620
  GI50: > 100 µM (inactive)
PC-3
  GI50: > 100 µM (inactive)
UACC-257
  GI50: > 100 µM (inactive)
LOX IMVI
  GI50: > 100 µM (inactive)
SNB-75
  GI50: > 100 µM (inactive)
MDA-MB-435
  GI50: > 100 µM (inactive)
SK-MEL-2
  GI50: > 100 µM (inactive)
RPMI-8226
  GI50: > 100 µM (inactive)
TK-10
  GI50: > 100 µM (inactive)
MDA-N
  GI50: > 100 µM (inactive)
A549
  GI50: > 100 µM (inactive)
IGROV-1
  GI50: > 100 µM (inactive)
NCI-H460
  GI50: > 100 µM (inactive)
T47D
  GI50: > 100 µM (inactive)
Hs-578T
  GI50: > 100 µM (inactive)
CAKI-1
  GI50: > 100 µM (inactive)
UO-31
  GI50: > 100 µM (inactive)
MCF7
  GI50: > 100 µM (inactive)
A498
  GI50: > 100 µM (inactive)
RXF 393
  GI50: > 100 µM (inactive)
OVCAR-4
  GI50: > 100 µM (inactive)
SN12C
  GI50: > 100 µM (inactive)
DU-145
  GI50: > 100 µM (inactive)
ACHN
  GI50: > 100 µM (inactive)
HL-60
  GI50: > 100 µM (inactive)
NCI-H522
  GI50: > 100 µM (inactive)
OVCAR-5
  GI50: > 100 µM (inactive)
UACC-62
  GI50: > 100 µM (inactive)
M14
  GI50: > 100 µM (inactive)
COLO 205
  GI50: > 100 µM (inactive)
Malme-3M
  GI50: > 100 µM (inactive)
HCT-15
  GI50: > 100 µM
NCI-H23
  GI50: > 100 µM (inactive)
SF-268
  GI50: > 100 µM (inactive)
KM12
  GI50: > 100 µM (inactive)
U-251
  GI50: > 100 µM (inactive)
MOLT-4
  GI50: > 100 µM (inactive)
SF-295
  GI50: > 100 µM (inactive)
SNB-19
  GI50: > 100 µM (inactive)
786-0
  GI50: > 100 µM (inactive)
OVCAR-3
  GI50: > 100 µM (inactive)
NCI-H226
  GI50: > 100 µM (inactive)
SK-MEL-5
  GI50: > 100 µM (inactive)
SR
  GI50: > 100 µM (inactive)
HOP-92
  GI50: > 100 µM (inactive)
BT-549
  GI50: > 100 µM (inactive)
HT-29
  GI50: > 100 µM (inactive)
SK-MEL-28
  GI50: > 100 µM (inactive)
K562
  GI50: > 10 µM (inactive)
OVCAR-8
  GI50: > 100 µM (inactive)
MDA-MB-231
  GI50: > 100 µM (inactive)

## Cn1ncc(NCCn2cnc3c2c(=O)n(C)c(=O)n3C)c(Cl)c1=O
SF-539
  GI50: > 100 µM (inactive)
NCI/ADR-RES
  GI50: > 100 µM (inactive)
HOP-62
  GI50: > 100 µM (inactive)
CCRF-CEM
  GI50: > 100 µM (inactive)
HCT-116
  GI50: > 100 µM (inactive)
HCC 2998
  GI50: > 100 µM (inactive)
SW-620
  GI50: > 100 µM (inactive)
PC-3
  GI50: > 100 µM (inactive)
UACC-257
  GI50: > 100 µM (inactive)
LOX IMVI
  GI50: > 100 µM (inactive)
MDA-MB-435
  GI50: > 100 µM (inactive)
SK-MEL-2
  GI50: > 100 µM (inactive)
RPMI-8226
  GI50: > 100 µM (inactive)
TK-10
  GI50: > 100 µM (inactive)
MDA-N
  GI50: > 100 µM (inactive)
A549
  GI50: > 100 µM (inactive)
IGROV-1
  GI50: > 100 µM (inactive)
NCI-H460
  GI50: > 100 µM (inactive)
EKVX
  GI50: > 100 µM (inactive)
T47D
  GI50: > 100 µM (inactive)
Hs-578T
  GI50: > 100 µM (inactive)
CAKI-1
  GI50: > 100 µM (inactive)
UO-31
  GI50: > 100 µM (inactive)
MCF7
  GI50: > 100 µM (inactive)
A498
  GI50: > 100 µM (inactive)
RXF 393
  GI50: > 100 µM (inactive)
OVCAR-4
  GI50: > 100 µM (inactive)
SN12C
  GI50: > 100 µM (inactive)
DU-145
  GI50: > 100 µM (inactive)
ACHN
  GI50: > 100 µM (inactive)
HL-60
  GI50: > 100 µM (inactive)
NCI-H522
  GI50: > 100 µM (inactive)
OVCAR-5
  GI50: > 100 µM (inactive)
UACC-62
  GI50: > 100 µM (inactive)
M14
  GI50: > 100 µM (inactive)
COLO 205
  GI50: > 100 µM (inactive)
Malme-3M
  GI50: > 100 µM (inactive)
HCT-15
  GI50: > 100 µM
SK-OV-3
  GI50: > 100 µM (inactive)
NCI-H23
  GI50: > 100 µM (inactive)
SF-268
  GI50: > 100 µM (inactive)
KM12
  GI50: > 100 µM (inactive)
U-251
  GI50: > 100 µM (inactive)
MOLT-4
  GI50: > 100 µM (inactive)
SF-295
  GI50: > 100 µM (inactive)
SNB-19
  GI50: > 100 µM (inactive)
786-0
  GI50: > 100 µM (inactive)
OVCAR-3
  GI50: > 100 µM (inactive)
NCI-H226
  GI50: > 100 µM (inactive)
SK-MEL-5
  GI50: > 100 µM (inactive)
SR
  GI50: > 100 µM (inactive)
HOP-92
  GI50: > 100 µM (inactive)
BT-549
  GI50: > 100 µM (inactive)
HT-29
  GI50: > 100 µM (inactive)
SK-MEL-28
  GI50: > 100 µM (inactive)
K562
  GI50: > 100 µM (inactive)
OVCAR-8
  GI50: > 100 µM (inactive)
MDA-MB-231
  GI50: > 100 µM (inactive)
